{
  "source": "paper PMC5725665",
  "about": "“Discovery of a Highly Selective Cell‐Active Inhibitor of the Histone Lysine Demethylases KDM2/7” (Angewandte Chemie (International Ed. in English), 2017)",
  "key": {"[1]": {"target": "T1, KDM2A (Homo sapiens, UniProt Q9Y2K7)", "T1 construct": "isolated enzyme", "T1 sequence (Q9Y2K7 1-517 limits assumed)": "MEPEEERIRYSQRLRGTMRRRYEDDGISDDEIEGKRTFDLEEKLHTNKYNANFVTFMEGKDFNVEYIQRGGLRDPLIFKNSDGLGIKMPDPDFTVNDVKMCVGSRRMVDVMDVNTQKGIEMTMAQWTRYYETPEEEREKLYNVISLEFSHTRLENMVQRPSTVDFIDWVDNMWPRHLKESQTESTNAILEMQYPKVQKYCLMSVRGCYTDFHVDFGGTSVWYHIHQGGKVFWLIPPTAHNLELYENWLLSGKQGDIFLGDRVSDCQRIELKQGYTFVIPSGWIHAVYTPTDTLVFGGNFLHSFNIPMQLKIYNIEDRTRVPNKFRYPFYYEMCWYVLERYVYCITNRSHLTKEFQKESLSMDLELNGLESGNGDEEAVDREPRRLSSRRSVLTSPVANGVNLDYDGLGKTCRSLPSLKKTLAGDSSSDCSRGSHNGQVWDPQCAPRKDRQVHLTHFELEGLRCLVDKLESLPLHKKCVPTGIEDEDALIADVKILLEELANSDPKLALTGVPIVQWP", "experiment": "demethylase activity assay (RapidFire MS / AlphaScreen)", "format": "biochemical", "conditions": "not competitive with 2-OG or peptide substrate"}, "[2]": {"target": "JARID1A (KDM5A) (Homo sapiens, UniProt P29375)", "sequence (P29375 whole entry)": "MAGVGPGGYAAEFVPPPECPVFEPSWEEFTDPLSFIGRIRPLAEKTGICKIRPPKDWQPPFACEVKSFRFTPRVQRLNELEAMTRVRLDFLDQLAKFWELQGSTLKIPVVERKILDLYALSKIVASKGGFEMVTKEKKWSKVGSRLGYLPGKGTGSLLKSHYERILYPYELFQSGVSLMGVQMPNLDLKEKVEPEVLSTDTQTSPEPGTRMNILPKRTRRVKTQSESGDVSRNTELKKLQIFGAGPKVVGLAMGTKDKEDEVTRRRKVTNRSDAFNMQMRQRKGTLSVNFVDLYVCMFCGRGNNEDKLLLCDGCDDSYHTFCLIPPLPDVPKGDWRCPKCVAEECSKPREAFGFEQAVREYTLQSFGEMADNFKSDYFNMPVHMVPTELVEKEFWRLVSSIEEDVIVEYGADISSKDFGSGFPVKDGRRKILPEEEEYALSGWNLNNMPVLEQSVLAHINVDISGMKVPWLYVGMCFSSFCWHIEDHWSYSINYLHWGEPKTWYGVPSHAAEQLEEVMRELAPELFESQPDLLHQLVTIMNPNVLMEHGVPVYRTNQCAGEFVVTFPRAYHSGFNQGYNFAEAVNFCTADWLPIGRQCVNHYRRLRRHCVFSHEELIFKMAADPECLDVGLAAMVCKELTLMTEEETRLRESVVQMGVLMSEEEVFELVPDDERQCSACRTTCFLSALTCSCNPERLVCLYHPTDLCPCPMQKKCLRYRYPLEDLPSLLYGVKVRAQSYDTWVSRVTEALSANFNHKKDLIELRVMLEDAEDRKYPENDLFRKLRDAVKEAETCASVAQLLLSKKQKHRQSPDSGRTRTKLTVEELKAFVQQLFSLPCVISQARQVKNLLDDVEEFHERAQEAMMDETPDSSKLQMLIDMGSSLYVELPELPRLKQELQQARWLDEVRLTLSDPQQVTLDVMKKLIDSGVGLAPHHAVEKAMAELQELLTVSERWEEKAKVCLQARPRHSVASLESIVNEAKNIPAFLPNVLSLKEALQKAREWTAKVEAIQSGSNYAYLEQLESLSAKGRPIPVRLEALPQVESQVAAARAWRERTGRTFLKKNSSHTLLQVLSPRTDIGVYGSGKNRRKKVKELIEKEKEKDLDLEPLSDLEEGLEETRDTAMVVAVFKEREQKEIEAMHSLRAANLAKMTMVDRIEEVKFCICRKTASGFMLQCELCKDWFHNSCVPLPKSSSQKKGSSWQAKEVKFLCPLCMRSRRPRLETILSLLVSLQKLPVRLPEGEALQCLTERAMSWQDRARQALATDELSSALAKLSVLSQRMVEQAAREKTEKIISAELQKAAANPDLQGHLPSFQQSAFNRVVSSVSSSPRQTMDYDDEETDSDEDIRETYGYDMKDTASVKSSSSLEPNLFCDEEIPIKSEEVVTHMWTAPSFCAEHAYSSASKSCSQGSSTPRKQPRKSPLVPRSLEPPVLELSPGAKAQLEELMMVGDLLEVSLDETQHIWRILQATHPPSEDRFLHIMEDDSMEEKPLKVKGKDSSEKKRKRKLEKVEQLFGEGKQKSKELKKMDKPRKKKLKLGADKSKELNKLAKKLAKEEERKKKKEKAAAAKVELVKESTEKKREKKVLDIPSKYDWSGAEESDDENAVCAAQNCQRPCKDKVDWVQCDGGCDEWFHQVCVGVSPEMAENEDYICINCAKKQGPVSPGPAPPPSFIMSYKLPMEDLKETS", "experiment": "biochemical", "design": "AlphaScreen histone demethylase activity assay", "source_text": "(§1) A base‐mediated 5‐endo‐trig cyclization of a C‐2‐substituted aromatic imine afforded the racemic indoline core with two adjacent stereocenters. Subsequent acylation of the indoline ring system conferred stability towards oxidation and provided a handle for modulating polarity. Finally, metal‐catalysed cross‐coupling of the aryl bromide provided access to a variety of linkers between the indoline core and pyrrolidine capping group. In total, 45 racemic compounds were synthesized, and IC50 values for inhibition of KDM2A were determined using two orthogonal enzyme activity assays: AlphaScreen25 and RapidFire MS26 (see Section S3.1 in the Supporting Information for complete inhibition data). Key structure–activity relationships are summarized below (Scheme 1 B, compounds 2–12). […] In immunofluorescence assays using HeLa cells ectopically expressing catalytically active KDM2A, a dose‐dependent increase in H3K36me2 staining was observed upon incubation with (S,S)‐6, reflecting augmented cellular H3K36me2 levels (Figure 2 A and Section S3.3). […] To profile its selectivity, (S,S)‐6 was tested for inhibitory activity against a panel of KDMs, methyllysine binding motifs, and epigenetic enzymes."}, "[3]": {"target": "JARID1B (KDM5B) (Homo sapiens, UniProt Q9UGL1)", "sequence (Q9UGL1 whole entry)": "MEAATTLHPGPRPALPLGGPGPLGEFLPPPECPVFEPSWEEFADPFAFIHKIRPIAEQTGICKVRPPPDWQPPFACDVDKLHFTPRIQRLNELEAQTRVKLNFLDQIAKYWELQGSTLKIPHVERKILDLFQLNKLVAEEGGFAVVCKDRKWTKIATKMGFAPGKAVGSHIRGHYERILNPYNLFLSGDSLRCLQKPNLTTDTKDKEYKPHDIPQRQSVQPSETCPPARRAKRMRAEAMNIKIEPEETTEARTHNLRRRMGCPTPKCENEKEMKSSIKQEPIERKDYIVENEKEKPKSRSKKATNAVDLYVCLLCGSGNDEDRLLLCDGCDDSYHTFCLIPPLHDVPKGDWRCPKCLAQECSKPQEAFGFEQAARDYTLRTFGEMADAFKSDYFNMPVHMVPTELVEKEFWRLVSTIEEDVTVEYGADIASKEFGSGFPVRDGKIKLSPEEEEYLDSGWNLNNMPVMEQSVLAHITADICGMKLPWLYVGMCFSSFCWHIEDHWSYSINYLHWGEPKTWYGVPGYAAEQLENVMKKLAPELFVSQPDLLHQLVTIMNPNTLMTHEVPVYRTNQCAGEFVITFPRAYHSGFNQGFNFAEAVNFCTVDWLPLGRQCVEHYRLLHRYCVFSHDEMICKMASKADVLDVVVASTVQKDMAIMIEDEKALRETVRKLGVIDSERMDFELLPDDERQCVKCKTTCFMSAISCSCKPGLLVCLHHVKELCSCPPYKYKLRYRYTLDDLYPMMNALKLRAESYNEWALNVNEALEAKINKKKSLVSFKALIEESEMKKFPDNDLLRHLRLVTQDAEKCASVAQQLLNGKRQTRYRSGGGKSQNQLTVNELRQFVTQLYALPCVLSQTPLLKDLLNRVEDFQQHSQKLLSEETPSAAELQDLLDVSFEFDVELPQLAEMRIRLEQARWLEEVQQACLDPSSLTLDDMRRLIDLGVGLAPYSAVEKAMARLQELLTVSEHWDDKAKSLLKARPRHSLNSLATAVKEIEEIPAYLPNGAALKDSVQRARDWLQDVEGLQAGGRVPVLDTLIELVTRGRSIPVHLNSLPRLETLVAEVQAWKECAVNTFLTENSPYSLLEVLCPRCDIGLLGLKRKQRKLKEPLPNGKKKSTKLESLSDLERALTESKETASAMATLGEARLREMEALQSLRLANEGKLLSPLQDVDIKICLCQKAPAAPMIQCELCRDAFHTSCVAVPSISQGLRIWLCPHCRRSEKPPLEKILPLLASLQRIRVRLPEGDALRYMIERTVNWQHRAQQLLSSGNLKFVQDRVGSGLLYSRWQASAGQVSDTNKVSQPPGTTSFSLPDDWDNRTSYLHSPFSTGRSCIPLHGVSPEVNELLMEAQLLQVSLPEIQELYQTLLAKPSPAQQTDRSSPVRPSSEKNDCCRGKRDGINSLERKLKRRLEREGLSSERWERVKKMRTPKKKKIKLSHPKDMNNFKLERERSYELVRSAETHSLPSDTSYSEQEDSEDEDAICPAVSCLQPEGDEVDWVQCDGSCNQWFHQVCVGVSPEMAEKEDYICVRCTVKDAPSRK", "experiment": "biochemical", "design": "AlphaScreen histone demethylase activity assay", "conditions": "read-out: KDM5B pIC50 (converted)", "source_text": "as §1"}, "[4]": {"target": "JARID1C (KDM5C) (Homo sapiens, UniProt P41229)", "sequence (P41229 whole entry)": "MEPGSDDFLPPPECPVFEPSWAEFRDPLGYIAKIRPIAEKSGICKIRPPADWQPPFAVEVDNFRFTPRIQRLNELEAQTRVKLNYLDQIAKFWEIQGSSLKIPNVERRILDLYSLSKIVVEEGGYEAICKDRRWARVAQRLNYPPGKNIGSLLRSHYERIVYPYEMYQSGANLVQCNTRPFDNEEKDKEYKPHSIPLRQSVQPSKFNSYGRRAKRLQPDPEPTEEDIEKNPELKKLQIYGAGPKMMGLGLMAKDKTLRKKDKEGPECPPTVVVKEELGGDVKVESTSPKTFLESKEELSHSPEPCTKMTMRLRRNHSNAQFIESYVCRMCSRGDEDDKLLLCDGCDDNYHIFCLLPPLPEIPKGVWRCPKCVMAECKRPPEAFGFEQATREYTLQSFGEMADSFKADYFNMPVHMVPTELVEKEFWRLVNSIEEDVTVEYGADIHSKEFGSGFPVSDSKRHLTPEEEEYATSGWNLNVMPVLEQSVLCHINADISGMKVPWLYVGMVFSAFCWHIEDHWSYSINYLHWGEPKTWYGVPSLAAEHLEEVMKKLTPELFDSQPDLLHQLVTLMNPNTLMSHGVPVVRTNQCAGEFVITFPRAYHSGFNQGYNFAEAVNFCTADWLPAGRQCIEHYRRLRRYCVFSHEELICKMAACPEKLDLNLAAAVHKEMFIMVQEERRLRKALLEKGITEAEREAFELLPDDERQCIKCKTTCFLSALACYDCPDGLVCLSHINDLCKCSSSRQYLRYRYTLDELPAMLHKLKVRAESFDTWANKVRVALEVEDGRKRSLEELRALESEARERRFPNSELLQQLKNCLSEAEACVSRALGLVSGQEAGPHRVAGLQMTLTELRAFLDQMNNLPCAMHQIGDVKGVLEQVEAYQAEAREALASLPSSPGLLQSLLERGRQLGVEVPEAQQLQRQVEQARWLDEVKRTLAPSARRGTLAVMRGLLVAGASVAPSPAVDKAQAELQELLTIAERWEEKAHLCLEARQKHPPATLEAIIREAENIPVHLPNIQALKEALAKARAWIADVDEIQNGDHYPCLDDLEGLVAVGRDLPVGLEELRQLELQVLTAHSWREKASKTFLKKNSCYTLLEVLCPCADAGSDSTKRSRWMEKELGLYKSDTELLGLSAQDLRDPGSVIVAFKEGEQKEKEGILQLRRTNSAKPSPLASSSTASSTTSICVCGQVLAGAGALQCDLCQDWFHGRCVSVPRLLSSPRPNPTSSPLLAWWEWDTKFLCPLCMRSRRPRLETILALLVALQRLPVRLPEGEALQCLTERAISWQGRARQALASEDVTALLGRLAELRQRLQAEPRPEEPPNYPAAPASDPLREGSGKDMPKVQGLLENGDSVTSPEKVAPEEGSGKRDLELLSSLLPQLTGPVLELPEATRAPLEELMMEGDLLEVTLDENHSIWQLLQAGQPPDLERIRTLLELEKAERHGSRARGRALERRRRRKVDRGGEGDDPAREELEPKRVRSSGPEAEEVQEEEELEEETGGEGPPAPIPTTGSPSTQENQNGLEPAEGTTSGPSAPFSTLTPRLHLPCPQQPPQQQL", "experiment": "biochemical", "design": "AlphaScreen histone demethylase activity assay", "conditions": "read-out: KDM5C pIC50 (converted)", "source_text": "as §1"}, "[5]": {"target": "T2, JMJD2A (KDM4A) (Homo sapiens, UniProt O75164)", "T2 sequence (O75164 1-1064)": "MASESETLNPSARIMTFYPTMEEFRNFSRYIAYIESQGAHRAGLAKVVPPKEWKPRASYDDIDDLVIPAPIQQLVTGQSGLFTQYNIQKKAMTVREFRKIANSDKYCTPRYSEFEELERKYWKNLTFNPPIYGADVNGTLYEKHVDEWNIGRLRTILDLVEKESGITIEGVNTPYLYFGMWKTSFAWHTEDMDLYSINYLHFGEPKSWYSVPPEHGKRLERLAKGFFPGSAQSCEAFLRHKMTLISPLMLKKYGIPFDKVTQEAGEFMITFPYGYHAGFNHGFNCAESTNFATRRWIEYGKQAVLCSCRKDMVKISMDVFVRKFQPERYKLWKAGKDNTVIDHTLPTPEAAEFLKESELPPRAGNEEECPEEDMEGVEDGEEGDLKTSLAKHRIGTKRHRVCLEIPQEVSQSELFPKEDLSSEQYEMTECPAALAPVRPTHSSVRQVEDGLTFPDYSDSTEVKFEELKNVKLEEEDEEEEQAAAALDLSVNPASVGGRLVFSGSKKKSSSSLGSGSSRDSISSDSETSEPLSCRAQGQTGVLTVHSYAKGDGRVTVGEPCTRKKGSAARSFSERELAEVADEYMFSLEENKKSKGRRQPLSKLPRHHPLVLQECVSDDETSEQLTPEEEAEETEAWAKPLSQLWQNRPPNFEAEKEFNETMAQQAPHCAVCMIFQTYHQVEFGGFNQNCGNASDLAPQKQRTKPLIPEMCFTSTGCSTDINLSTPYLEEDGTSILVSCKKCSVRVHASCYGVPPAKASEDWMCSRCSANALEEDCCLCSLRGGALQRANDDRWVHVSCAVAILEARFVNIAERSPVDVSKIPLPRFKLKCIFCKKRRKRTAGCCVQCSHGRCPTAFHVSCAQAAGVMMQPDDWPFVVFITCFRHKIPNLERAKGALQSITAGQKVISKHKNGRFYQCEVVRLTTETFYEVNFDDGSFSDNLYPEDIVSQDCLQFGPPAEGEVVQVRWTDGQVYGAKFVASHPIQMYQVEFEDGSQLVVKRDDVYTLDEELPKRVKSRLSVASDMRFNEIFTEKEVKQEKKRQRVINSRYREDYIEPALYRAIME", "experiment": "biochemical", "design": "AlphaScreen histone demethylase activity assay", "conditions": "read-out: KDM4A pIC50 (converted)", "source_text": "as §1"}, "[6]": {"target": "T3, JMJD2D (KDM4D) (Homo sapiens, UniProt Q6B0I6)", "T3 sequence (Q6B0I6 1-523)": "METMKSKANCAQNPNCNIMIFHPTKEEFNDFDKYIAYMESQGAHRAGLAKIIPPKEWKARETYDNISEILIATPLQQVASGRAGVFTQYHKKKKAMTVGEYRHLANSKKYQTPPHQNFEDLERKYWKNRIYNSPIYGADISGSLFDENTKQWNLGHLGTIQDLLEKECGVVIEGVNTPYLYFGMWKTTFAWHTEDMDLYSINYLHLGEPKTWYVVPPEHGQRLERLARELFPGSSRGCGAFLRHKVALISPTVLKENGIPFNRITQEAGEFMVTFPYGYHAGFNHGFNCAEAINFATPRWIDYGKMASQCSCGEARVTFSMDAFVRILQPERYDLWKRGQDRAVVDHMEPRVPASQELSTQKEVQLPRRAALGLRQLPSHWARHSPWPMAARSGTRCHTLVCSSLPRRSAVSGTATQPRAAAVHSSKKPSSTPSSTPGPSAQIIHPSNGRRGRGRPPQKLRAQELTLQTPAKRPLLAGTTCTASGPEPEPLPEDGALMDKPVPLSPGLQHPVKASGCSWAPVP", "experiment": "biochemical", "design": "AlphaScreen histone demethylase activity assay", "source_text": "as §1"}},
  "data": [
    {"smiles": "CC(=O)N1c2ccccc2[C@@](C#N)(c2ccccc2)[C@@H]1c1cncc(CCCCCCCN2CCCC2)c1", "note": "[(S,S)-6]", "values": [
      {"measurement": "IC50", "setting": "[1]", "result": 0.16, "unit": "µM"},
      {"measurement": "inhibition at 50 µM", "setting": "[2]", "result": -20.3, "unit": "%"},
      {"measurement": "IC50", "setting": "[2]; read-out: KDM5A pIC50 (converted)", "result": "> 50.1", "unit": "µM"},
      {"measurement": "IC50", "setting": "[3]", "result": 13.1, "unit": "µM"},
      {"measurement": "IC50", "setting": "[4]", "result": 15.7, "unit": "µM"},
      {"measurement": "IC50", "setting": "[5]", "result": "> 20", "unit": "µM"},
      {"measurement": "inhibition at 10 µM", "setting": "[6]", "result": 22.6, "unit": "%"},
      {"measurement": "IC50", "setting": "[6]; read-out: KDM4D pIC50 (converted)", "result": "> 100", "unit": "µM"}
    ]}
  ]
}
